We go through 9 compounds from patent US10336732B2, “1-heterocyclyl isochromanyl compounds and analogs for treating CNS disorders” (Sunovion Pharmaceuticals Inc., priority 2015, dated 2019).

The structures appear in SMILES notation.

The assay deals with mice. The assay is described as follows: Neuropharmacological assay (SmartCube), behavioral signature of compound-treated mice. It counts as in vivo. The conditions noted are these: i.p. 15 min before behavioral test, most efficacious dose(s) of 3 doses. The gist of the method: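 Mice received compound i.p. in NMP/PEG/propylene glycol vehicle at 3 doses, 15 min before testing. Video-captured behavior was algorithmically compared with a reference-drug signature database.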
For the compound `Clc1ccc2c(c1)[C@H]([C@H]1CCCN1)OCC2` [Compound I-31, (R)-2-((R)-7-chloroisochroman-1-yl)pyrrolidine], the “AD: ADHD (probability that behavioral signature matches class)” value (from here on “AD: ADHD”) is given as “+ (LOQ ≤ + <5%)”, the “AG: analgesic (probability that behavioral signature matches class)” value (shortened to “AG: analgesic”) is listed as “++ (5% ≤ ++ <25%)”, the “AX: anxiolytic (probability that behavioral signature matches class)” value (“AX: anxiolytic” for short) is recorded as “+++ (25% ≤ +++ <50%)” and the “CE: cognitive enhancer (probability that behavioral signature matches class)” value (“CE: cognitive enhancer” for short) was “++ (5% ≤ ++ <25%)”. Moreover, the “DP: anti-depressant (probability that behavioral signature matches class)” value (“DP: anti-depressant” for short) is given as “++ (5% ≤ ++ <25%)”, the “HA: hallucinogen (probability that behavioral signature matches class)” value (from here on “HA: hallucinogen”) is on record as “+ (LOQ ≤ + <5%)”, the “MS: mood stabilizer (probability that behavioral signature matches class)” value (shortened to “MS: mood stabilizer”) was “++ (5% ≤ ++ <25%)” and the “PS: anti-psychotic (probability that behavioral signature matches class)” value (shortened to “PS: anti-psychotic”) was “+++ (25% ≤ +++ <50%)”. Moreover, the “SD: sedative hypnotic (probability that behavioral signature matches class)” value (from here on “SD: sedative hypnotic”) was “++ (5% ≤ ++ <25%)”, the “UN: uncharacterized CNS activity (probability that behavioral signature matches class)” value (“UN: uncharacterized CNS activity” below) is “+ (LOQ ≤ + <5%)” and the “XG: anxiogenic (probability that behavioral signature matches class)” value (from here on “XG: anxiogenic”) is given as “+ (LOQ ≤ + <5%)”.
As for `Cc1cccc2c1[C@@H]([C@H]1CCCN1)OCCC2` [Compound I-104, (R)-2-((S)-9-methyl-1,3,4,5-tetrahydrobenzo[c]oxepin-1-yl)pyrrolidine], the “AD: ADHD” value was “+ (LOQ ≤ + <5%)”, the “AG: analgesic” value was “+++ (25% ≤ +++ <50%)”, the “AX: anxiolytic” value is “++ (5% ≤ ++ <25%)” and the “CE: cognitive enhancer” value is listed as “+ (LOQ ≤ + <5%)”. In addition, the “DP: anti-depressant” value is listed as “++ (5% ≤ ++ <25%)”, the “HA: hallucinogen” value is reported as “+ (LOQ ≤ + <5%)”, the “MS: mood stabilizer” value is “+ (LOQ ≤ + <5%)” and the “PS: anti-psychotic” value is “+ (LOQ ≤ + <5%)”. For the same compound, the “SD: sedative hypnotic” value is “++ (5% ≤ ++ <25%)”, the “UN: uncharacterized CNS activity” value is “++ (5% ≤ ++ <25%)” and the “XG: anxiogenic” value is given as “+ (LOQ ≤ + <5%)”.
As for `Fc1ccc2c(c1)CO[C@H]2[C@H]1CCN1` [Compound I-128, (R)-2-((R)-5-fluoro-1,3-dihydroisobenzofuran-1-yl)azetidine], the “AD: ADHD” value is on record as “+ (LOQ ≤ + <5%)”, the “AG: analgesic” value is “++ (5% ≤ ++ <25%)”, the “AX: anxiolytic” value is “++ (5% ≤ ++ <25%)” and the “CE: cognitive enhancer” value is reported as “+ (LOQ ≤ + <5%)”. Further, the “DP: anti-depressant” value is “++ (5% ≤ ++ <25%)”, the “HA: hallucinogen” value is on record as “+ (LOQ ≤ + <5%)”, the “MS: mood stabilizer” value is “+ (LOQ ≤ + <5%)” and the “PS: anti-psychotic” value is listed as “++++ (50% ≤ ++++)”. For the same compound, the “SD: sedative hypnotic” value was “+ (LOQ ≤ + <5%)”, the “UN: uncharacterized CNS activity” value is recorded as “+ (LOQ ≤ + <5%)” and the “XG: anxiogenic” value is recorded as “+ (LOQ ≤ + <5%)”.
In the case of `CC1(C)Cc2ccccc2[C@@H]([C@@H]2CCCN2)O1` [Compound I-65, (S)-2-((S)-3,3-dimethylisochroman-1-yl)pyrrolidine], the “AD: ADHD” value is “+ (LOQ ≤ + <5%)”, the “AG: analgesic” value is on record as “+++ (25% ≤ +++ <50%)”, the “AX: anxiolytic” value is on record as “++ (5% ≤ ++ <25%)” and the “CE: cognitive enhancer” value was “++ (5% ≤ ++ <25%)”. Moreover, the “DP: anti-depressant” value is recorded as “++ (5% ≤ ++ <25%)”, the “HA: hallucinogen” value is on record as “+ (LOQ ≤ + <5%)”, the “MS: mood stabilizer” value is on record as “+ (LOQ ≤ + <5%)” and the “PS: anti-psychotic” value was “++ (5% ≤ ++ <25%)”. Further, the “SD: sedative hypnotic” value is “++ (5% ≤ ++ <25%)”, the “UN: uncharacterized CNS activity” value is “+ (LOQ ≤ + <5%)” and the “XG: anxiogenic” value is given as “+ (LOQ ≤ + <5%)”.
For the compound `Fc1ccc2c(c1)[C@@H]([C@H]1CCCN1)OCC2` [Compound I-8, (R)-2-((S)-7-fluoroisochroman-1-yl)pyrrolidine], the “AD: ADHD” value is “+ (LOQ ≤ + <5%)”, the “AG: analgesic” value is recorded as “+ (LOQ ≤ + <5%)”, the “AX: anxiolytic” value was “++ (5% ≤ ++ <25%)” and the “CE: cognitive enhancer” value was “++ (5% ≤ ++ <25%)”. The “DP: anti-depressant” value is “+++ (25% ≤ +++ <50%)”, the “HA: hallucinogen” value was “+ (LOQ ≤ + <5%)”, the “MS: mood stabilizer” value is recorded as “+ (LOQ ≤ + <5%)” and the “PS: anti-psychotic” value is given as “+++ (25% ≤ +++ <50%)”. Besides, the “SD: sedative hypnotic” value is reported as “++ (5% ≤ ++ <25%)”, the “UN: uncharacterized CNS activity” value is listed as “++ (5% ≤ ++ <25%)” and the “XG: anxiogenic” value is listed as “+ (LOQ ≤ + <5%)”.
In the case of `Fc1ccc2c(c1)CCO[C@H]2[C@@H]1CCCCN1` [Compound I-74, (S)-2-((R)-6-fluoroisochroman-1-yl)piperidine], the “AD: ADHD” value is “+ (LOQ ≤ + <5%)”, the “AG: analgesic” value is reported as “++ (5% ≤ ++ <25%)”, the “AX: anxiolytic” value is “++ (5% ≤ ++ <25%)” and the “CE: cognitive enhancer” value is given as “++ (5% ≤ ++ <25%)”. Moreover, the “DP: anti-depressant” value is given as “++ (5% ≤ ++ <25%)”, the “HA: hallucinogen” value was “+ (LOQ ≤ + <5%)”, the “MS: mood stabilizer” value is listed as “+ (LOQ ≤ + <5%)” and the “PS: anti-psychotic” value is “+++ (25% ≤ +++ <50%)”. Further, the “SD: sedative hypnotic” value is “++ (5% ≤ ++ <25%)”, the “UN: uncharacterized CNS activity” value was “+ (LOQ ≤ + <5%)” and the “XG: anxiogenic” value is reported as “+ (LOQ ≤ + <5%)”.
With `c1ccc2c(c1)CCO[C@H]2[C@@H]1CCCCN1` [Compound I-72, (S)-2-((R)-isochroman-1-yl)piperidine], the “AD: ADHD” value is reported as “+ (LOQ ≤ + <5%)”, the “AG: analgesic” value is on record as “++ (5% ≤ ++ <25%)”, the “AX: anxiolytic” value is on record as “++ (5% ≤ ++ <25%)” and the “CE: cognitive enhancer” value is “+ (LOQ ≤ + <5%)”. Besides, the “DP: anti-depressant” value was “+ (LOQ ≤ + <5%)”, the “HA: hallucinogen” value was “+ (LOQ ≤ + <5%)”, the “MS: mood stabilizer” value is “+ (LOQ ≤ + <5%)” and the “PS: anti-psychotic” value is “+ (LOQ ≤ + <5%)”. Also, the “SD: sedative hypnotic” value is reported as “+ (LOQ ≤ + <5%)”, the “UN: uncharacterized CNS activity” value is recorded as “+++ (25% ≤ +++ <50%)” and the “XG: anxiogenic” value is on record as “++ (5% ≤ ++ <25%)”.
For `c1ccc2c(c1)CCO[C@H]2C1CNC1` [Compound I-115, (S)-3-(isochroman-1-yl)azetidine], the “AD: ADHD” value is given as “+ (LOQ ≤ + <5%)”, the “AG: analgesic” value was “++ (5% ≤ ++ <25%)”, the “AX: anxiolytic” value is recorded as “++ (5% ≤ ++ <25%)” and the “CE: cognitive enhancer” value is “++ (5% ≤ ++ <25%)”. Also, the “DP: anti-depressant” value was “++ (5% ≤ ++ <25%)”, the “HA: hallucinogen” value is on record as “+ (LOQ ≤ + <5%)”, the “MS: mood stabilizer” value is listed as “+ (LOQ ≤ + <5%)” and the “PS: anti-psychotic” value is “++ (5% ≤ ++ <25%)”. Moreover, the “SD: sedative hypnotic” value is “++ (5% ≤ ++ <25%)”, the “UN: uncharacterized CNS activity” value is “+++ (25% ≤ +++ <50%)” and the “XG: anxiogenic” value was “+ (LOQ ≤ + <5%)”.
With `Fc1ccc2c(c1)[C@H]([C@@H]1CCN1)OCC2` [Compound I-86, (S)-2-((R)-7-fluoroisochroman-1-yl)azetidine], the “AD: ADHD” value is listed as “+ (LOQ ≤ + <5%)”, the “AG: analgesic” value was “+++ (25% ≤ +++ <50%)”, the “AX: anxiolytic” value is “+++ (25% ≤ +++ <50%)” and the “CE: cognitive enhancer” value is on record as “++ (5% ≤ ++ <25%)”. The “DP: anti-depressant” value is “++ (5% ≤ ++ <25%)”, the “HA: hallucinogen” value is on record as “+ (LOQ ≤ + <5%)”, the “MS: mood stabilizer” value is given as “+ (LOQ ≤ + <5%)” and the “PS: anti-psychotic” value is “+++ (25% ≤ +++ <50%)”. Also, the “SD: sedative hypnotic” value was “++ (5% ≤ ++ <25%)”, the “UN: uncharacterized CNS activity” value was “++ (5% ≤ ++ <25%)” and the “XG: anxiogenic” value is “+ (LOQ ≤ + <5%)”.
